From patent US7662825B2, “N-pyrazinyl-phenylsulphonamides and their use in the treatment of chemokine mediated diseases” (AstraZeneca AB, priority 2002, dated 2010) come the findings set out here.

`COc1nc(CO)c(C)nc1NS(=O)(=O)c1cccc(Cl)c1Cl` [Example 120, 2,3-Dichloro-N-[5-(hydroxymethyl)-3-methoxy-6-methyl-2-pyrazinyl)benzenesulphonamide] returned a melting point of 175 to 177 °C.

In the case of `COc1nc(Cl)cnc1NS(=O)(=O)c1cccc(Cl)c1F` [Example 122, 3-Chloro-N-(5-chloro-3-methoxy-2-pyrazinyl)-2-fluorobenzenesulphonamide], the melting point is 156 to 157 °C.

On to `COC(=O)c1cnc(NS(=O)(=O)c2cccc(Cl)c2Cl)c(OCc2cccnc2)n1` [Example 134, 5-(2,3-Dichlorobenzenesulphonylamino)-6-(3-pyridinylmethoxy)pyrazine-2-carboxylic acid, methyl ester], for which the melting point is 209 to 210 °C.

`CSCCOc1nc(Cl)cnc1NS(=O)(=O)c1cccc(Cl)c1Cl` [Example 90, 2,3-Dichloro-N-[5-chloro-3-(2-methylsulphanylethoxy)-2-pyrazinyl]benzenesulphonamide]: the melting point was 140 to 141 °C.

With `COc1nc(SC)cnc1NS(=O)(=O)c1cccc(Cl)c1Cl` [Example 80, 2,3-Dichloro-N-(3-methoxy-5-methylsulphanyl-2-pyrazinyl)benzenesulphonamide], the melting point is 141 to 142 °C.

The compound `COc1nc(Br)cnc1NS(=O)(=O)c1ccc(F)c(Cl)c1Cl` [Example 185, N-(5-Bromo-3-methoxypyrazinyl)-2,3-dichloro-4-fluorobenzenesulphonamide] yielded a melting point of 208 to 211 °C.

The compound `O=S(=O)(Nc1ncc(Cl)nc1OCc1ccc(CNC2CC2)o1)c1cccc(Cl)c1Cl` [Example 210, 2,3-Dichloro-N-[5-chloro-3-(5-cyclopropylaminomethyl-2-furanylmethoxy)-2-pyrazinyl]-benzenesulphonamide] showed a melting point of 175 to 176 °C.

`COc1nc(Cl)cnc1NS(=O)(=O)c1ccc(Cl)cc1` [Example 53, 4-Chloro-N-(5-chloro-3-methoxy-2-pyrazinyl)benzenesulphonamide] had a melting point of 179 to 180 °C.

`COc1nc(N(C)C)c(Cl)nc1NS(=O)(=O)c1cccc(Cl)c1Cl` [Example 69, 2,3-Dichloro-N-[6-chloro-5-dimethylamino-3-methoxy-2-pyrazinyl]benzenesulphonamide] returned a melting point of 145 to 146 °C.

In turn, `COc1nccnc1NS(=O)(=O)c1cccc(Cl)c1Cl` [Example 30, 2,3-Dichloro-N-(3-methoxy-2-pyrazinyl)benzenesulphonamide] returned a melting point of 183 to 184 °C.

`COc1nc(C)cnc1NS(=O)(=O)c1ccccc1F` [Example 13, N-(3-Methoxy-5-methyl-2-pyrazinyl)-2-fluorobenzenesulphonamide] came in with a melting point of 150 to 152 °C.

`Cc1cnc(NS(=O)(=O)c2cccc(Cl)c2Cl)c(OCc2cc(C)on2)n1` [Example 21, 2,3-Dichloro-N-[5-methyl-3-(5-methyl-3-isoxazolylmethoxy)-2-pyrazinyl]benzenesulphonamide] returned a melting point of 155 to 156 °C.

Compound `COc1nc(Cl)cnc1NS(=O)(=O)c1cccc(Cl)c1` [Example 52, 3-Chloro-N-(5-chloro-3-methoxy-2-pyrazinyl)benzenesulphonamide] showed a melting point of 129 to 130 °C.

As for `C#CCOc1cnc(NS(=O)(=O)c2cccc(Cl)c2Cl)c(OC)n1` [Example 198, 2,3-Dichloro-N-[3-methoxy-5-(2-propyn-1-yloxy)-2-pyrazinyl]benzenesulphonamide], the melting point is 110 to 112 °C.

Turning to `COc1nc(N2CCCC2)cnc1NS(=O)(=O)c1cccc(Cl)c1Cl` [Example 57], the melting point is 179 to 180 °C.

In turn, `COc1nc(Cl)c(Cl)nc1NS(=O)(=O)c1cccc(Cl)c1Cl` [Example 59, 2,3-Dichloro-N-(5,6-dichloro-3-methoxy-2-pyrazinyl)benzenesulphonamide] came in with a melting point of 172 to 173 °C.

`COc1nc(Cl)cnc1NS(=O)(=O)c1ccc(Cl)cc1Cl` [Example 54, N-(5-Chloro-3-methoxy-2-pyrazinyl)-2,4-dichlorobenzenesulphonamide] returned a melting point of 170 to 171 °C.

Turning to `COc1nc(Cl)c(Cl)nc1NS(=O)(=O)c1cccc(Cl)c1C` [Example 58, 3-Chloro-N-(5,6-dichloro-3-methoxy-2-pyrazinyl)-2-methylbenzenesulphonamide], the melting point fell in the range of 177 to 178 °C.

For `CCOc1cnc(NS(=O)(=O)c2cccc(Cl)c2Cl)c(OC)n1` [Example 166, 2,3-Dichloro-N-(5-ethoxy-3-methoxy-2-pyrazinyl)benzenesulphonamide], the melting point is 96 to 97 °C.

`N#Cc1cnc(NS(=O)(=O)c2cccc(Cl)c2Cl)c(OCc2cccnc2)n1` [Example 78, 2,3-Dichloro-N-[5-cyano-3-(3-pyridinylmethoxy)-2-pyrazinyl]benzenesulphonamide] had a melting point of 222 to 224 °C.

Compound `CNC(=O)CSc1cnc(NS(=O)(=O)c2cccc(Cl)c2Cl)c(OC)n1` [Example 168, 2-[5-(2,3-Dichlorobenzenesulphonylamino)-6methoxy-2-pyrazinylsulphanyl]-N-methylacetamide] came in with a melting point of 150 to 152 °C.

With `COc1nc(Br)c(C)nc1NS(=O)(=O)c1cccc(Cl)c1Cl` [Example 118, 2,3-Dichloro-N-[5-bromo-3-methoxy-6-methyl-2-pyrazinyl)benzenesulphonamide], the melting point is 146 to 148 °C.

In the case of `COc1nc(C)cnc1NS(=O)(=O)c1ccc(Cl)cc1` [Example 46, 4-Chloro-N-(3-methoxy-5-methyl-2-pyrazinyl)benezenesulphonamide], the melting point fell in the range of 155 to 156 °C.

Compound `COc1nc(SCCN)c(Cl)nc1NS(=O)(=O)c1cccc(Cl)c1Cl` [Example 116, N-{5-[(2-Aminoethyl)thio]-6-chloro-3-methoxy-2-pyrazinyl}-2,3-dichlorobenzenesulfonamide] had a melting point of 185 to 190 °C.

`COc1nc(Cl)c(Cl)nc1NS(=O)(=O)c1ccc(Cl)cc1` [Example 62, 4-Chloro-N-(5,6-dichloro-3-methoxy-2-pyrazinyl)benzenesulphonamide]: the melting point was in the range of 186 to 187 °C.

`CCN(CC)C(=O)COc1cnc(NS(=O)(=O)c2cccc(Cl)c2Cl)c(OC)n1` [Example 204, 2-[5-(2,3-Dichlorobenzenesulphonylamino)-6-methoxy-2-pyrazinyloxy]-N,N-diethyl-acetamide] yielded a melting point of 117 to 118 °C.

For `COc1nc(-c2cnccn2)cnc1NS(=O)(=O)c1cccc(Cl)c1Cl` [Example 72, 2,3-Dichloro-N-[6-methoxy-5-([2,2′]bipyrazinylyl)]benzenesulphonamide], the melting point lay within 199 to 200 °C.

In the case of `COC(=O)c1nc(OC)c(NS(=O)(=O)c2cccc(Cl)c2Cl)nc1Cl` [Example 126, 3-Chloro-5-{[(2,3-dichlorophenyl)sulphonyl]amino}-6-methoxypyrazine-2-carboxylic acid, methyl ester], the melting point lay in the range of 200 to 201 °C.

The compound `O=S(=O)(Nc1ncc(Cl)nc1OCc1cncc(Br)c1)c1cccc(Cl)c1Cl` [Example 142, N-{3-[(5-Bromo-3-pyridinyl)methoxy]-5-chloro-2-pyrazinyl}-2,3-dichlorobenzenesulphonamide] yielded a melting point of 199 to 201 °C.

As a reminder, the melting point is the temperature, or range, at which the solid turns liquid.
